One assay deals with MMA in RKO cells. The assay can be described thus: RKO In Cell Western assay (MMA primary antibody). The following applies: Homo sapiens, 72 hours, read-out: RKO ICW_EC30. The assay is classed as cell-based. The method, then:
RKO was seeded at a concentration of 20,000 cells/ml into a polylysine-coated 96-well plate (Corning #3599), with 2,000 cells per well and 100 μL of culture mediumper well. 500 nL of compound was added to the 96-well plate. 3) The 96-well plate was incubated in a 37° C., 5% CO2 incubator for 72 hours. After three days, the 96-well plate was taken from the incubator, 100 μL of 8% paraformaldehyde solution was added to each well, and the plate was placed at room temperature for 15 min. After 15 min, the liquid in the plate was shaken out and the plate was washed three times with phosphate buffer (1*PBS). The liquid in the plate was shaken out and 200 μL of membrane-breaking buffer (0.1% (v/v) Tween-20 in PBS) was added and the plate was incubated on a shaker for 30 min. After half an hour, the liquid in the plate was shaken out, and blocking buffer was added and the plate was incubated for two hours at room temperature with shaking. After that, the liquid in the plate was shaken off, and the blocking solution containing primary antibody (MMA primary antibody, CST #8711S, 1:1000 v/v) was added to the 96-well plate and the plate was incubated at 4° C. overnight with shaking. The next day, the plate was washed three times with washing solution (0.05% (v/v) Tween-20 in PBS), and a blocking solution containing secondary antibody (goat anti-rabbit IgG (H+L) Invitrogen #31460, 1:10,000 v/v) was added and the plate was incubated for two hours at room temperature. Afterwards, the 96-well plate was washed four times with washing solution. The TMB mixture was added to the 96-well plate and then the plate was incubated for 15 minutes at room temperature with shaking. After that, the reaction terminating solution was added, and the value was read at OD450 nm using an microplate reader. The plate was washed three times with washing solution, and 50 μL of janusgreen staining solution was added, and the plate was incubated for 15 minutes at room temperature with shaking. The reaction was washed ten times with water until no color residue was left. 200 μL of 0.5 M hydrochloric acid solution was added to each well and the plate was incubated for 10 min at room temperature. The value was read at OD595 nm using Flexstation.
Firstly, the ratio OD450/OD595 was calculated for each well
Each plate had six DMSO negative control groups (ZPE) and six 10 μM positive control groups (HPE), and the average of the control group ratios was used to determine the percentage of activation for each test well. The compounds to be tested were triple diluted with DMSO for a total of 8 concentration points with a starting concentration of 5 μM. The equation for calculating the activation percentage of each test well was: […]

In a further assay the target is PRMT1 (Homo sapiens, UniProt Q99873). The assay can be described thus: PRMT1 enzyme activity test. The assay is classed as biochemical. The following applies: 0.5 nM PRMT1, 3H-SAM, peptide. In short, it runs like this: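 Radiometric methylation assay: 0.5 nM PRMT1 preincubated 15 min at room temperature with compound (10-point 3-fold series, 1% DMSO) in pH 8.0 Tris buffer with Tween-20 and DTT. 0.25 uM ³H-SAM and 0.1 uM biotinylated peptide then reacted 120 min. Product captured on streptavidin FlashPlate and counted; IC50 from four-parameter fit of % inhibition.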

For the next assay, the system named is Toledo cells. The assay can be described thus: Toledo cell proliferation inhibition assay. It is filed as cell-based. The note with it: Homo sapiens, Toledo, 144 h; six-day assay, CellTiter-Glo. A digest of the protocol:
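Toledo cells seeded at 2000 cells/well in RPMI 1640 + 10% FBS and incubated with compound for six days at 37° C, 5% CO2. Viability was then read by CellTiter-Glo luminescence after 30 min orbital mixing.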
For orientation: Cellular ATP, detected with luciferase, serves as a proxy for viable cell number.

A further assay relates to MV-4-11 cells. The assay can be described thus: MV-4-11 cell proliferation inhibition assay. The assay is classed as cell-based. The note with it: Homo sapiens, MV4-11, 144 h; six-day assay, CellTiter-Glo. How it is done: • A. Purpose: to determine the effects of compounds on Toledo cells through a six-day cell proliferation assay. • B. Reagents and materials: • 1. Cell culture medium: RPMI 1640+10% FBS • 2. 384-well cell culture plate (Corning, item #3764) • 3. 0.4% Taipan Blue Staining Solution (Thermo Fisher, item #T10282) • 4. cell counting plate (Thermo Fisher, item #C10228) • 5. 50 ml reagent reservoir (Corning, item #4870) • 6. 50 ml conical sterile polypropylene centrifuge tube (Thermo Fisher, item #339653) • 7. Automatic cell counter (Thermo Fisher, item #AMQAX1000) • 8. CellTiter-Glo Luminescent Cell Viability Detection Reagent (Promega, item #G7572) • 9. SpectraMax i3x Multi-Mode Enzyme Labeling Instrument (Megaman Molecular Instruments, item #5024062) • C. Experimental method • 1. Resuspending the cells with a pipette. • 2. 0.4% Taipan blue staining solution and Toledo cells were mixed in equal proportion, and the cells were counted using an automatic cell counter. • 3. Toledo cells were diluted to a final concentration of 2000 cells per well and transferred to a 50 ml reagent reservoir. • 4. Diluted Toledo cells were added to a 384-well cell culture plate, 40 ul per well. • 5. The cells were shortly centrifuged and settled. • 6. The cells were incubated in a 37° C., 5% CO2 cell culture incubator. • 7. The substrate in the CellTiter-Glo Luminescent Cell Viability Detection Reagent was mixed with the solution. • 8. After six days, the 384-well cell culture plate was taken from the incubator and 20 ul of configured CellTiter-Glo reagent was added to each well. • 9. 384-well cell culture platewasmixed in an orbital shaker for 30 minutes. • 10. Signal of luminescence was detected with a SpectraMax i3x multi-mode enzyme labeling instrument.
Similar to the Toledo cell proliferation inhibition assay method, the difference was that MV-4-11 cells were used and the cell culture medium was IMDM+10% FBS; in step 3 of the assay method 250 cells per well was used instead;

Where only a bound is given, the exact number is not on record here.

The term IC50 denotes the concentration that inhibits the measured activity by half. A higher IC50 goes with a need for much substance.

Sequence of PRMT1 (Q99873 whole entry): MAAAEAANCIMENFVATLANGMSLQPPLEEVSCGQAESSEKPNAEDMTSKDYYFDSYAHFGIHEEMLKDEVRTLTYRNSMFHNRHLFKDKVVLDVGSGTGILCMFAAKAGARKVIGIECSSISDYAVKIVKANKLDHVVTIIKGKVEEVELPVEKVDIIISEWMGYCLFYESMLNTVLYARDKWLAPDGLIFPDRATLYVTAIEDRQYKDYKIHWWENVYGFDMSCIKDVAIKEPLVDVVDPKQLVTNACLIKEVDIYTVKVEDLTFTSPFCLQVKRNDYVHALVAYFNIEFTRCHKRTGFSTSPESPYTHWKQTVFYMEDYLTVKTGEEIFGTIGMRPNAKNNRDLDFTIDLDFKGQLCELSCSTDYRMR

As for `CCOCC1(COCC)CCC(c2ncccc2CN(C)CCNC)CC1` [P208], in the assay on MMA in RKO cells, the EC30 is 250 to 2500 nM. The IC50 against PRMT1 is < 50 nM; in the assay with Toledo cells, < 1000 nM.
For `CNCCN(C)Cc1ncccc1N1CCc2ccc(C#N)cc2CC1` [P225], the EC30 with MMA in RKO cells was < 250 nM. Further, the IC50 against PRMT1 was < 50 nM; in the assay on Toledo cells, < 1000 nM.
The like results for `CNCCN(C)Cc1ccc(N)nc1C1CCN(c2cccc(C)c2)CC1` [P226, N^1-((6-amino-2-(1-(m-tolyl)piperidin-4-yl)pyridin-3-yl)methyl)-N^1,N^2-dimethylethane-1,2-diamine] were, in that order, < 250 nM, < 50 nM and < 1000 nM.
The like results for `CNCCN(C)Cc1ncccc1C1CCN(c2nc(N(C)C)nc3ccccc23)CC1` [P240] were, in that order, 250 to 2500 nM, < 50 nM and < 1000 nM.
Take `CNCCN(C)Cc1ncccc1N1CCc2ccc(N)cc2CC1` [P243]: in the assay with MMA in RKO cells, the EC30 fell in the range of 250 to 2500 nM. The values for the IC50 at PRMT1 and in the assay with Toledo cells were < 50 nM and < 1000 nM, respectively.
The like results for `CNCCN(C)Cc1ncccc1C1CCN(c2ncc3ccccc3n2)CC1` [P250] were, in that order, 250 to 2500 nM, < 50 nM and < 1000 nM.
On to `CNCCN(C)Cc1ncccc1C1CCN(c2ccnc(N3CCCC3)n2)CC1` [P251], for which the EC30 with MMA in RKO cells is 250 to 2500 nM. Moreover, the results for the IC50 at PRMT1 and in the assay with Toledo cells were < 50 nM and < 1000 nM, respectively.
In the same order, the values of `CNCCN(C)Cc1ncccc1C1CCN(c2nccc(N3CCCC3)n2)CC1` [P252] are 250 to 2500 nM, < 50 nM and < 1000 nM.
`CCOCC1(COCC)CCC(c2cc3c(cc2CN(C)CCNC)CNC3=O)CC1` [P258]: in the assay on MMA in RKO cells, the EC30 is < 250 nM. For the same compound, the IC50 at PRMT1 was < 50 nM; with Toledo cells, < 1000 nM.
Turning to `CNCCN(C)Cc1ccc2[nH]c(=O)[nH]c2c1C1CCN(c2cccc(C)c2)CC1` [P261], in the assay on MV-4-11 cells, the IC50 is < 1000 nM.
`CNCCN(C)Cc1ncccc1N1CCc2nc(SC)nc(C)c2CC1` [P323]: the EC30 in the assay on MMA in RKO cells was > 2500 nM. For the same compound, the IC50 at PRMT1 was < 50 nM; in the assay with Toledo cells it was < 1000 nM.
Take `CNCCN(C)Cc1cc(F)ccc1C1CCN(S(=O)(=O)c2ccccc2[N+](=O)[O-])CC1` [P325]: the EC30 in the assay on MMA in RKO cells was 250 to 2500 nM. In addition, the IC50 is < 50 nM on PRMT1 and < 1000 nM in the assay with Toledo cells.
As for `CNCCN(C)Cc1ccc(NCCNCC(=O)NC)nc1C1CCN(c2cccc(C)c2)CC1` [P400], the IC50 in the assay with MV-4-11 cells is < 1000 nM.
Consider `CNCCN(C)Cc1ccc2nn(C)cc2c1C1CCN(c2cccc(C)c2)CC1` [P401], for which the results for the IC50 against PRMT1 and in the assay on MV-4-11 cells were < 50 nM and < 1000 nM, respectively.
The like results for `CNCCN(C)Cc1ccc2c(c1C1CCN(c3cccc(C)c3)CC1)C(C)(C)C(=O)N2` [P402] were, in that order, 50 to 500 nM and 1000 to 5000 nM.
In the same order, the values of `CNCCN(C)Cc1ccc2c(c1C1CCN(c3cccc(C)c3)CC1)C(=O)C(=O)N2Cc1ccc(OC)cc1` [P404] are 50 to 500 nM and < 1000 nM.
The like results for `CNCCN(C)Cc1ccc2c(c1C1CCN(c3cccc(C)c3)CC1)C(=O)C(=O)N2` [P405] were, in that order, < 50 nM and < 1000 nM.
As for `CNCCN(C)Cc1ccc2[nH]c(N3CCOCC3)nc2c1C1CCN(c2cccc(C)c2)CC1` [P406, N,N′-dimethyl-N′-[[2-morpholin-4-[1-(m-tolyl)-4-piperidinyl]-1H-benzo[d]imidazol-5-yl]methyl]ethane-1,2-diamine], the IC50 on PRMT1 was < 50 nM; in the assay with MV-4-11 cells, < 1000 nM.
In the same order, the values of `CNCCN(C)Cc1ccc2[nH]c(C(=O)c3ccccc3)nc2c1C1CCN(c2cccc(C)c2)CC1` [P407] are 50 to 500 nM and < 1000 nM.
Take `CNCCN(C)Cc1cc2nc(N)[nH]c2cc1C1CCN(c2cccc(C)c2)CC1` [P408]: the IC50 with MV-4-11 cells is ≥ 5000 nM.
Same read-out and setting: as for `CNCCN(C)Cc1ccc2c(c1C1CCN(c3cccc(C)c3)CC1)CC(C)(C)C(=O)N2` [P410], the figure is < 1000 nM.
The same measure, in the same setting: for `CNCCN(C)Cc1ncc2[nH]c(=O)[nH]c2c1C1CCN(c2cccc(C)c2)CC1` [P413] the value was < 1000 nM; for `CNCCN(C)Cc1ncc2[nH]c(N3CCOCC3)nc2c1C1CCN(c2cccc(C)c2)CC1` [P414], < 1000 nM.
Turning to `CNCCN(C)Cc1ncc2[nH]c(C)nc2c1C1CCN(c2cccc(C)c2)CC1` [P415], in the assay on MV-4-11 cells, the IC50 is < 1000 nM.
Same read-out and setting: as for `CNCCN(C)Cc1ccc2[nH]c(C(F)(F)F)nc2c1C1CCN(c2cccc(C)c2)CC1` [P416], the figure is < 1000 nM; as for `CNCCN(C)Cc1ccc2[nH]c(-c3cnc(C)nc3)nc2c1C1CCN(c2cccc(C)c2)CC1` [P418], < 1000 nM.
Turning to `CCOCC1(COCC)CCC(c2c(CN(C)CCNC)ccc3[nH]c(N4CCOCC4)nc23)CC1` [P419], the IC50 with MV-4-11 cells was < 1000 nM.
Still for that read-out and setting: as for `CNCCN(C)Cc1ccc2[nH]c(N3CCOCC3)nc2c1C1CCc2cc(F)c(F)cc2CC1` [P420], the figure is < 1000 nM.
`CNCCN(C)Cc1ccc2[nH]c(C3=CCOCC3)nc2c1C1CCN(c2cccc(C)c2)CC1` [P422]: the IC50 in the assay with MV-4-11 cells is < 1000 nM.
Same read-out and setting: as for `CNCCN(C)Cc1ccc2[nH]c(N3CCN(C)CC3)nc2c1C1CCN(c2cccc(C)c2)CC1` [P423], the figure is < 1000 nM; as for `CNCCN(C)Cc1ccc2[nH]c(N3CCCCC3)nc2c1C1CCN(c2cccc(C)c2)CC1` [P424], < 1000 nM; as for `Cc1cccc(N2CCC(c3c(CN(C)CCN)ccc4[nH]c(N5CCOCC5)nc34)CC2)c1` [P425], < 1000 nM.
Still for that read-out and setting: for `CCN(CCNC)Cc1ccc2[nH]c(N3CCOCC3)nc2c1C1CCN(c2cccc(C)c2)CC1` [P426] the value was < 1000 nM; for `CNCCN(C)Cc1ccc2[nH]c(N3CCOCC3)nc2c1C1CCN(c2cccc(C)n2)CC1` [P428], < 1000 nM.
The same measure, in the same setting: for `CNCCN(C)Cc1ccc2[nH]c(N3CCOCC3)nc2c1C1CCN(c2cncc(F)c2)CC1` [P429] the value was < 1000 nM; for `CNCCN(C)Cc1ccc2[nH]c(N3CCNCC3)nc2c1C1CCN(c2cccc(C)c2)CC1` [P440], < 1000 nM; for `CNCCN(C)Cc1ccc2[nH]c(N3CCN(C(=O)CCCC(=O)N4CCN(c5nc6c(C7CCN(c8cccc(C)c8)CC7)c(CN(C)CCNC)ccc6[nH]5)CC4)CC3)nc2c1C1CCN(c2cccc(C)c2)CC1` [P442], < 1000 nM.
For the compound `CNCCN(C)Cc1ccc2[nH]c(C3=CCN(C)CC3)nc2c1C1CCN(c2cccc(C)c2)CC1` [P447], the IC50 in the assay on MV-4-11 cells was < 1000 nM.
Still for that read-out and setting: as for `CNCCN(C)Cc1ccc2[nH]c(C3CCN(C)CC3)nc2c1C1CCN(c2cccc(C)c2)CC1` [P448], the figure is < 1000 nM.

The values are drawn from patent US20240307409A1, “ARGININE METHYLTRANSFERASE INHIBITOR AND USE THEREOF” (Cytosinlab Therapeutics Co., Ltd., priority 2021, published 2024).
